These results are taken from US10851072B2 (THE REGENTS OF THE UNIVERSITY OF MICHIGAN, priority 2018, dated 2020).

Test system in the first data set: not listed separately
As to the kind of experiment: MLM metabolic stability (half-life). The format is in vitro ADME, mice. To be noted: mouse, mouse liver microsomes (MLM), 1 μM compound, beta-NADPH 1 mM, 60 min, LC-MS, read-out: MLM T1/2. How it is done:
Compounds (1 μM) were incubated with MLM in the presence of beta-NADPH (1 mM) for 60 min. The remaining drug concentration was measured using LC-MS using multiple reaction monitoring (MRM) mode. Both initial and overall disappearance rate and half-lives were calculated. […] Verapamil was run as a positive control in every assay; its half-life could not exceed 4 min or the assay was considered invalid.
With `O=C(O)CCCSc1nnc(-c2ccc(OCC(F)(F)F)cc2Cl)o1` [Compound A12, 4-((5-(2-chloro-4-(2,2,2-trifluoroethoxy)phenyl)-1,3,4-oxadiazol-2-yl)thio)butanoic acid], the half-life at 1 μM was greater than 1 h.

As to `O=C(O)CCCSc1nnc(-c2ccc(OC3CC3)cc2Cl)o1` [Compound A8, 4-((5-(2-chloro-4-cyclopropoxyphenyl)-1,3,4-oxadiazol-2-yl)thio)butanoic acid], the half-life at 1 μM was greater than 1 h.

On to `O=C(O)CCCSc1nnc(-c2ccc(C(F)(F)F)cc2Cl)o1` [Compound A2], for which the half-life at 1 μM is greater than 1 h.

Consider `O=C(O)[C@H]1C[C@@H](Sc2nnc(-c3ccc(Cl)cc3Cl)o2)C1` [Compound B2, cis-3-((5-(2,4-Dichlorophenyl)-1,3,4-oxadiazol-2-yl)thio)cyclobutanecarboxylic acid], for which the half-life at 1 μM was greater than 1 h.

The subject of a further data set is serum response element (SRE). As to the kind of experiment: SRE.L-Luciferase Reporter Assay. The format is cell-based. To be noted: Homo sapiens; Table C; HEK-293T cells co-transfected with Gα12Q231L, SRE.L and pRL-TK plasmids; 19 hrs treatment. How it is done:
Biological activity of the compounds disclosed herein were assessed in the SRE.L luciferase reporter assay. HEK-293T cells were co-transfected with 2 ng of the Gα12Q231L expression plasmid along with 50 ng of the SRE.L and 7 ng of the pRL-TK luciferase reporter plasmids, as described in the Materials and Methods section. Cells were treated with 0 (vehicle, DMSO alone), 1, 3, 10, 30, and 100 μM of a compound disclosed herein for 19 hrs after transfection before lysis. Luminescence was determined as described in the Materials and Methods section. Just before cell lysis, the viability of the cells was measured using the WST-1 cell proliferation reagent as described in the Materials and Methods section. Data are expressed as percentage of inhibition (DMSO alone=0%). The experiments were performed three separate times to achieve n=3 in triplicate.
(A reporter such as luciferase makes a cellular process visible.)
Turning to `CC(C)(F)c1ccc(-c2nnc(SCCCC(=O)O)o2)cc1` [Compound A22], half-maximal inhibition (IC50) was put at 9.5 nM. In other words, the single-digit nanomolar range.

Turning to `O=C(O)CCCSc1nnc(-c2ccccc2C(F)(F)F)o1` [Compound A5, 4-((5-(2-(trifluoromethyl)phenyl)-1,3,4-oxadiazol-2-yl)thio)butanoic acid], 6200 nM corresponded to half-maximal inhibition (IC50).

In turn, `O=C(O)CCCSc1nnc(-c2ccc(Cl)cc2O)o1` [Compound C, 4-((5-(4-chloro-2-hydroxyphenyl)-1,3,4-oxadiazol-2-yl)thio)butanoic acid] displayed an IC50 of 0.02 nM.

As for `O=C(O)CCCSc1nnc(-c2ccc(OCC(F)(F)F)cc2)o1` [Compound A17, 4-((5-(4-(2,2,2-trifluoroethoxy)phenyl)-1,3,4-oxadiazol-2-yl)thio)butanoic acid], inhibition was half-maximal at 240 nM (IC50).

On to `O=C(O)CCCSc1nnc(-c2ccc(OCC(F)(F)F)cc2Cl)o1` [Compound A12, 4-((5-(2-chloro-4-(2,2,2-trifluoroethoxy)phenyl)-1,3,4-oxadiazol-2-yl)thio)butanoic acid], for which the 50% inhibitory concentration (IC50) came out at 0.8 nM.

Regarding `O=C(O)CCCSc1nnc(-c2ccccc2F)o1` [Compound A6, 4-((5-(2-fluorophenyl)-1,3,4-oxadiazol-2-yl)thio)butanoic acid], it took 211 nM to reach half-maximal inhibition (IC50).

Regarding `O=C(O)CCCSc1nnc(-c2ccc(C(F)F)cc2)o1` [Compound A18, 4-((5-(4-(difluoromethyl)phenyl)-1,3,4-oxadiazol-2-yl)thio)butanoic acid], the IC50 is 160 nM.

The compound `O=C(O)CCCSc1nnc(-c2ccc(Cl)cc2Cl)o1` [CCG-232120, reference compound] came in with a 50% inhibitory concentration (IC50) of 1.8 nM.

Consider `O=C(O)CCCSc1nnc(-c2ccc(OC(F)(F)F)cc2Cl)o1` [Compound A14, 4-((5-(2-chloro-4-(trifluoromethoxy)phenyl)-1,3,4-oxadiazol-2-yl)thio)butanoic acid], for which it took 3.6 nM to reach half-maximal inhibition (IC50).

For the compound `O=C(O)CCCSc1nnc(-c2cccc(C(F)(F)F)c2Cl)o1` [Compound A20, 4-((5-(2-chloro-3-(trifluoromethyl)phenyl)-1,3,4-oxadiazol-2-yl)thio)butanoic acid], the half-inhibitory concentration (IC50) was 330 nM.

With `O=C(O)CCCSc1nnc(-c2ccc(OC(F)F)cc2)o1` [Compound A23, 4-((5-(4-(difluoromethoxy)phenyl)-1,3,4-oxadiazol-2-yl)thio)butanoic acid], the half-inhibitory concentration (IC50) stood at 130 nM.

In the case of `O=C(O)CCCSc1nnc(-c2ccc(OC(F)(F)F)cc2)o1` [Compound A19, 4-((5-(4-(trifluoromethoxy)phenyl)-1,3,4-oxadiazol-2-yl)thio)butanoic acid], half-maximal inhibition (IC50) required 78 nM. This IC50 lies about 1.7-fold lower than the previous one.

The same data set, now with this note: Homo sapiens; Table D; HEK-293T cells co-transfected with Gα12Q231L, SRE.L and pRL-TK plasmids; 19 hrs treatment.
Compound `CC1(COc2ccc(-c3nnc(SCCCC(=O)O)o3)c(Cl)c2)COC1` [Compound A16, 4-((5-(2-chloro-4-((3-methyloxetan-3-yl)methoxy)phenyl)-1,3,4-oxadiazol-2-yl)thio)butanoic acid] had an IC50 of 42 nM.

`COC(=O)CCCSc1nnc(-c2ccc(C3CC3)cc2Cl)o1` [Compound A10, Methyl 4-((5-(2-chloro-4-cyclopropylphenyl)-1,3,4-oxadiazol-2-yl)thio)butanoate]: half-maximal inhibition (IC50) required 3 nM.

For `O=C(O)CCCSc1nnc(-c2cc(C3CC3)ccc2Cl)o1` [Compound A4, 4-((5-(2-chloro-5-cyclopropylphenyl)-1,3,4-oxadiazol-2-yl)thio)butanoic acid], the midpoint of inhibition, the IC50, lay at 11 nM.

`O=C(O)CCCSc1nnc(-c2ccc(OCC3COC3)cc2Cl)o1` [Compound A15, 4-((5-(2-chloro-4-(oxetan-3-ylmethoxy)phenyl)-1,3,4-oxadiazol-2-yl)thio)butanoic acid] displayed a half-maximal inhibitory concentration (IC50) of 35 nM. This IC50 lies about 3.2-fold higher than the previous one.

The compound `O=C(O)CCCSc1nnc(-c2ccc(OCC3CC3)cc2Cl)o1` [Compound A7, 4-((5-(2-chloro-4-(cyclopropylmethoxy)phenyl)-1,3,4-oxadiazol-2-yl)thio)butanoic acid] yielded a concentration for half-maximal inhibition (IC50) of 0.02 nM.

Still in this data set, the particulars now being: Homo sapiens; Table E; HEK-293T cells co-transfected with Gα12Q231L, SRE.L and pRL-TK plasmids; 19 hrs treatment.
For `O=C(O)[C@H]1C[C@@H](Sc2nnc(-c3ccc(C(F)(F)F)cc3Cl)o2)C1` [Compound B5, cis-3-((5-(2-chloro-4-(trifluoromethyl)phenyl)-1,3,4-oxadiazol-2-yl)thio)cyclobutanecarboxylic acid], half-maximal inhibition (IC50) required 42 nM.

With `O=C(O)[C@H]1C[C@H](Sc2nnc(-c3ccc(Cl)cc3Cl)o2)C1` [Compound B1, trans-3-((5-(2,4-dichlorophenyl)-1,3,4-oxadiazol-2-yl)thio)cyclobutanecarboxylic acid], the IC50 was determined as 140 nM.

In the case of `O=C(O)[C@@H]1CC[C@H](Sc2nnc(-c3ccc(Cl)cc3Cl)o2)C1` (relative stereo) [Compound B7, cis-3-((5-(2,4-dichlorophenyl)-1,3,4-oxadiazol-2-yl)thio)cyclopentanecarboxylic acid], the IC50 was determined as 15 nM.

Regarding `O=C(O)[C@H]1CC[C@H](Sc2nnc(-c3ccc(Cl)cc3Cl)o2)C1` (relative stereo) [Compound B8, trans-3-((5-(2,4-dichlorophenyl)-1,3,4-oxadiazol-2-yl)thio)cyclopentanecarboxylic acid], the 50% inhibitory concentration (IC50) was greater than 100000 nM.

In the case of `O=C(O)[C@H]1C[C@@H](Sc2nnc(-c3ccc(C4CC4)cc3Cl)o2)C1` [Compound B3, cis-3-((5-(2-chloro-4-cyclopropylphenyl)-1,3,4-oxadiazol-2-yl)thio)cyclobutanecarboxylic acid], the IC50 was found to be 0.46 nM.

For `O=C(O)[C@H]1CC[C@@H](Sc2nnc(-c3ccc(Cl)cc3Cl)o2)CC1` [Compound B9, cis-4-((5-(2,4-dichlorophenyl)-1,3,4-oxadiazol-2-yl)thio)cyclohexanecarboxylic acid], the IC50 was greater than 100000 nM.

In the case of `O=C(O)[C@H]1C[C@H](Sc2nnc(-c3ccc(C4CC4)cc3Cl)o2)C1` [Compound B4, trans-3-((5-(2-chloro-4-cyclopropylphenyl)-1,3,4-oxadiazol-2-yl)thio)cyclobutanecarboxylic acid], the IC50 was found to be 2.6 nM.

With `O=C(O)[C@H]1C[C@H](Sc2nnc(-c3ccc(C(F)(F)F)cc3Cl)o2)C1` [Compound B6, trans-3-((5-(2-chloro-4-(trifluoromethyl)phenyl)-1,3,4-oxadiazol-2-yl)thio)cyclobutanecarboxylic acid], the IC50 was 1000 nM.

`O=C(O)[C@H]1CC[C@H](Sc2nnc(-c3ccc(Cl)cc3Cl)o2)CC1` [Compound B10, trans-4-((5-(2,4-dichlorophenyl)-1,3,4-oxadiazol-2-yl)thio)cyclohexanecarboxylic acid] displayed an IC50 greater than 100000 nM.

With `O=C(O)[C@H]1C[C@@H](Sc2nnc(-c3ccc(Cl)cc3Cl)o2)C1` [Compound B2, cis-3-((5-(2,4-Dichlorophenyl)-1,3,4-oxadiazol-2-yl)thio)cyclobutanecarboxylic acid], the concentration for half-maximal inhibition (IC50) is 4.9 nM.

For orientation: IC50 means the concentration that gives 50% inhibition. Higher therefore signals weaker potency in that assay.
